Measured values published in patent US20210106567A1, “COMPOSITIONS AND METHODS FOR INHIBITING CARP-1 BINDING TO NEMO” (United States Government As Represented By The Department …, priority 2019, published 2021).

Columns and labels:
[1] = molecular target: T1, NEMO interaction with RIPK1 (Homo sapiens, UniProt Q13546+Q9Y6K9); experiment: IP-WB in Gst-NEMO expressing HBC cells, RIPK1; type: cell-based; conditions: alone or in combination with Adriamycin
T1 construct: expressed in transfected cells; host or cells: HBC cells stably expressing Gst-NEMO
T1 sequence (Q9Y6K9 whole entry): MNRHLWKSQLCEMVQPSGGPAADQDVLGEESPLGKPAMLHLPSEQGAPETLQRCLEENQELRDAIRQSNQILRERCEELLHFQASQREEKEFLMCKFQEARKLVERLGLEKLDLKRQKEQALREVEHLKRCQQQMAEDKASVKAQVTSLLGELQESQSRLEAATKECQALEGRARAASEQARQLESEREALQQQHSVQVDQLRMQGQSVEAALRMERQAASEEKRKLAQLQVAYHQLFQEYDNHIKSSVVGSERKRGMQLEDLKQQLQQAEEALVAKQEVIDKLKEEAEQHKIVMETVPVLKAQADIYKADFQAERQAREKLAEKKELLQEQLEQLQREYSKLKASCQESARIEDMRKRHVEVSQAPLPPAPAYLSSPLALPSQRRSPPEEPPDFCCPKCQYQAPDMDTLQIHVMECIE
T1 sequence (Q13546 whole entry): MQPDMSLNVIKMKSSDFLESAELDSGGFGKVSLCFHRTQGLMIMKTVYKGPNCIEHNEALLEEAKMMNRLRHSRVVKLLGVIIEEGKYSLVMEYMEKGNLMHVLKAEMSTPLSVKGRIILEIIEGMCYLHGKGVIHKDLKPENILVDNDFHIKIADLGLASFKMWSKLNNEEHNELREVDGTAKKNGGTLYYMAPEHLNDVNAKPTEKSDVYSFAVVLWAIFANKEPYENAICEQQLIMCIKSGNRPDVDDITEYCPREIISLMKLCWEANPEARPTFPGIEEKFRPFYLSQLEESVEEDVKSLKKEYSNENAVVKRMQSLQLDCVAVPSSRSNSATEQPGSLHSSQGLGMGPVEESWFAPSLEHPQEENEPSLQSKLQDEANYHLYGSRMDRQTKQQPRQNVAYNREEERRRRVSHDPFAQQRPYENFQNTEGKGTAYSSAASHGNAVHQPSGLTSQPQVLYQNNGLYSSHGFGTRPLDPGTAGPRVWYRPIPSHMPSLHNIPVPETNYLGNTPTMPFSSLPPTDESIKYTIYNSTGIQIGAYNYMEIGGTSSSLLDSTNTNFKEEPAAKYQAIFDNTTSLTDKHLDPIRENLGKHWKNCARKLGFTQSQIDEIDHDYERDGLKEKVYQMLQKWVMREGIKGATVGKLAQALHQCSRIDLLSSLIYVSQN
Experimental: (§1) The biochemical mechanism of inhibition of CARP-1 (551-580; SEQ ID NO: 6) binding with NEMO (221-261; SEQ ID NO: 2) by SNI-1 was assessed. E. coli expressed Gst-NEMO (221-261; SEQ ID NO: 2) and His-TAT-HA-CARP-1 (551-580; SEQ ID NO: 6) peptides in IP-WB assays were used. […] Since Adriamycin activates ATM to regulate canonical NF-κB and DSB repair pathways, it remains to be clarified whether CARP-1 regulates RIPK1 signaling dependent and/or independent of ATM.
(§2) The cells were lysed to prepare protein extracts.

murine TNBC cells = experiment: Cytokine ELISA of culture media; type: cell-based; conditions: single agent
[2] = tested on: SUM149 cell-derived xenografts; experiment: SUM149 BRCA1-mutant TNBC xenografts in NCr-SCID mice; type: in vivo; conditions: 70 mg/kg daily×13, i.p. (parent) or i.v. (sodium salt)
Excerpt: BRCA1 mutant TNBC Tumor Model: Testing for germline BRCA1/2 mutations permits identification of BRCA1/2 status as clinically relevant in the selection of therapy for patients already diagnosed with breast cancer. BRCA status predicts responsiveness to platinum-based chemotherapy, as well as to inhibitors of poly(ADP-ribose) polymerase (PARP) in breast and ovarian cancers. […] A related objective of this pilot study was to determine whether and to the extent SNI-1 or its water soluble, di-sodium derivative will elicit effects in vivo.

[3] = molecular target: T2, Flag-CARP-1 (546-580) binding with Biotin-NEMO (221-261) (Homo sapiens, UniProt Q8IX12); experiment: AlphaLISA assay of CARP-1/NEMO peptide binding (HTS format); conditions: biphasic, read-out: IC50, inhibition of binding of CARP-1 (546-580) with NEMO (221-261) peptide
T2 construct: Flag-tagged CARP-1 (546-580); purchased Peptides America, Fairfax, Va; host or cells: chemical synthesis
T2 sequence (Q8IX12 546-580 limits assumed): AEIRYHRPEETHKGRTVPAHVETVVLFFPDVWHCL
Excerpt: The predicted kinetics of interaction of CARP-1 (551-600; SEQ ID NO: 5) and NEMO (221-261; SEQ ID NO: 2) epitopes was further validated by utilizing respective, chemically synthesized peptides to determine their in-solution binding by SPR technology (Sekhar et al. (2019) Cancers (Basel) 11). […] On the collective basis of the data in FIG. 1, and biophysical and SPR data above, in vitro binding assays were developed utilizing chemically synthesized CARP-1 and NEMO peptides. In the first instance, CARP-1 (551-580; SEQ ID NO: 6) and NEMO (221-261; SEQ ID NO: 2) peptides were used to carry out buffer optimization and DMSO tolerance of the assay. […] Presence of 0.01% tween minimizes non-specific binding and generates higher reproducibility as noted by smaller error bars in FIG. 15A. […]
The AlphaLISA assay for high throughput screening: For screening of a library of chemical compounds, an […] assay was developed and optimized for use in 384-well format (SAMDI Tech, Chicago, Ill.). […] The assay signal (Fluorescence) was measured at 680 nm excitation and 615 nm emission wavelengths to determine assay robustness and DMSO tolerance. […] The plates were read on a Pherastar FS plate reader. […] Those wells were further analyzed to investigate the 8 compounds individually in duplicate.

[4] = tested on: follicular cell lymphoma cells; experiment: Cell viability, lymphoma; type: cell-based; conditions: Homo sapiens; read-out: IC50, reduced viabilities
[5] = tested on: RENCA renal cancer tumors; conditions: mouse, in vivo
Experimental: The subcutaneous tumor bearing mice were treated with indicated agents. […] The end-points for assessing anti-tumor activity involved qualitative determination via tumor growth inhibition (% T/C) where T is the median tumor volume of the treated mice and C is the median tumor volume of the Control mice on any given day of measurement.

[6] = molecular target: T3, His-TAT-HA-CARP-1 (551-580) binding with Gst-NEMO (221-261) (Homo sapiens, UniProt Q8IX12); experiment: Pull-down and Western blot with E. coli expressed peptides; conditions: then washed
T3 construct: His-TAT-HA-CARP-1 (551-580); made in house; host or cells: E. coli BL21
T3 sequence (Q8IX12 551-580 limits assumed): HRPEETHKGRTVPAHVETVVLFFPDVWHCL
Experimental: as §1, §2

MDA-MB-468 TNBC cells = experiment: MTT cell viability, SNI-1 analogs; type: cell-based, human; conditions: 24 h
Experimental: FIGS. 22A-B show SNI-1 analogs enhance Adriamycin inhibition of TNBC cell growth. FIGS. 22A-B show cells treated with indicated dose of noted agent for 24 h, and their viabilities determined by MTT assay. Columns represent means of three independent experiments; bars, SE.
MDA-MB-468 TNBC cells were next treated with each of the analog in vitro as a single agent or in combination with Adriamycin in vitro.

Structure (SMILES): Cc1ccc(-n2nnnc2SCC(=O)c2ccc(O)c(O)c2)cc1 [SNI-1, 1-(3,4-dihydroxyphenyl)-2-{(1-(4-methylphenyl)-1H-tetrazol-5-yl)thio}ethanone]
- NEMO interaction with RIPK1 (IP-WB) [1]: not with RIPK1
- secretion of TNFα and IL-1β (murine TNBC cells): failed to cause increase
- tolerability [2]: well tolerated
- IC50 [3]: ~0.3 µM
- IC50 [4]: ~7.5 µM
- weight loss in animals [5]: 0.4-4.0%
- binding of Gst-NEMO (221-261) with His-TAT-HA-CARP-1 (551-580) peptide ([6]; compound incubated with CARP-1 peptide immobilized on Ni-NTA beads): abrogated binding
- binding of His-TAT-HA-CARP-1 (551-580) with Gst-NEMO (221-261) peptide ([6]; compound incubated with Gst-NEMO peptide immobilized on Gst sepharose beads): failed to abrogate binding
- loss of cell viability in combination with Adriamycin versus Adriamycin alone (MDA-MB-468 TNBC cells): greater loss of cell viability
